{"source": "patent US8410178B2", "about": "“CIS 3,4-dihydroxy-2-(3-methylbutanoyl)-5-(3-methylbutyl)-4-(4-methylpentanoyl)cyclopent-2-en-1-derivatives, substantially enantiomerically pure compositions and methods” (KinDex Therapeutics, LLC, priority 2010, dated 2013)", "key": {"[1]": {"target": "T1, PPARδ (Homo sapiens, UniProt Q03181)", "T1 sequence (Q03181 1-441)": "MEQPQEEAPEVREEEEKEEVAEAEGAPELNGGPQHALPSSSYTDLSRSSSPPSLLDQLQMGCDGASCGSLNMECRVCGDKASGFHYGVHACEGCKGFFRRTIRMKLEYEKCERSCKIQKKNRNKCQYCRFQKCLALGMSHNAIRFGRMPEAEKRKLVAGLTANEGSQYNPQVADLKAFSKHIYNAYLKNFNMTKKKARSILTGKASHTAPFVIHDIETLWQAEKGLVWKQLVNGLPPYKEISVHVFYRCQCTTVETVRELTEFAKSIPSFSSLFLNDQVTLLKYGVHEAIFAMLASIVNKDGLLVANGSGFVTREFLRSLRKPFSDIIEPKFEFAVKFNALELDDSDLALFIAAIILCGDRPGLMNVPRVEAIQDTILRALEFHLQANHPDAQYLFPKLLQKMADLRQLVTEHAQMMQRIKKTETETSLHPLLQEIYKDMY", "assay": "PPARδ luciferase reporter assay", "type": "cell-based", "details": "reporter cells, 20 hours", "experimental": "The functional effect of (+)-KDT501 on PPARα, PPARδ, and PPARγ activity was evaluated using a PPAR reporter assay (INDIGO Biosciences, PA). This assay utilizes non-human mammalian cells engineered to provide constitutive high level expression of PPARα, PPARδ, or PPARγ and containing a luciferase report gene specific to the appropriate PPAR. Following activation by agonist binding, PPAR induces expression of the luciferase reporter gene. Luciferase activity therefore provides a surrogate for measuring PPAR activity in agonist-treated cells.\nReporter cells were plated on a 96-well plate at 100 μL per well, and 100 μL of (+)-KDT501 at various final concentrations (25, 12.5, 6.25, 3.125, 1.56 and 0.78 μM) was added to each well. […] 0.1% DMSO was also used as a negative control for each assay. Plates are incubated for 20 hours in a humidified incubator at 37° C. and 5% CO2. After incubation, cell medium was discarded and the cells were treated with 100 μL of luciferase detection reagent for 15 minutes. Plates were analyzed using a luminometer (Victor2, Perkin Elmer). Average relative light unit (RLU) and standard deviation were analyzed using GraphPad Prism."}, "[2]": {"target": "T2, angiotensin II receptor type II (AGTR2) (Homo sapiens, UniProt P50052)", "T2 sequence (P50052 1-363)": "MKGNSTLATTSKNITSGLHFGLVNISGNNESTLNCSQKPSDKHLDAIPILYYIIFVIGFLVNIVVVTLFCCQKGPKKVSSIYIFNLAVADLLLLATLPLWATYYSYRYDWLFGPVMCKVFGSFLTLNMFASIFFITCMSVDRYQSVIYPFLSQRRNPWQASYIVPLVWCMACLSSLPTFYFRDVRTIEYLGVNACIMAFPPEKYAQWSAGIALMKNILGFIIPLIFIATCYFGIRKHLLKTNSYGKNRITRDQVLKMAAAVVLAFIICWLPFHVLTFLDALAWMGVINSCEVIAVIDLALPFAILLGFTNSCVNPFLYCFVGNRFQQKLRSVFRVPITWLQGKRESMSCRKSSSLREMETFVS", "assay": "Competitive binding to AGTR2 ([125I]CGP 42112A)", "details": "binding target AGTR2; competitor ligand Angiotensin-II"}, "[3]": {"tested_on": "rheumatoid arthritis synovial fibroblasts (RASF)", "assay": "IL-1β-mediated inflammatory factors in RASFs", "type": "cell-based, Human", "details": "IL-1β-induced, 50, 25, 12.5, and 6.25 μM", "experimental": "The anti-inflammatory effect of (+)-KDT501 was evaluated in rheumatoid arthritis synovial fibroblasts (RASF).\nHuman RASF cells (Asterand, Detroit, Mich.) were cultured and maintained in DMEM/F12 (1:1) medium in the presence of 10% fetal bovine serum. Cells were subcultured in 24-well plates at a density of 1×10^4 cells per well and allowed to reach 70-80% confluence in two days. Confluent cells in serum-free medium at a final concentration of 0.1% DMSO were incubated for one hour with (+)-KDT501 at varying concentrations (50, 25, 12.5, and 6.25 μM), then stimulated with […] (10 ng/ml) for 20-24 hours. MMP-13 levels in the medium were measured using an ELISA kit (GE Healthcare, Piscataway, N.J.), and PGE2 levels were measured using an Immuno Assay Kit (Assay Designs, Ann Arbor, Mich.)."}, "[4]": {"tested_on": "THP-1 cells", "assay": "TNF-α- and LPS-mediated inflammatory factors in THP-1 cells", "type": "cell-based, human", "details": "TNF-α and LPS-induced, 50, 25, 12.5 and 3.125 μM", "experimental": "The anti-inflammatory effect of (+)-KDT501 was evaluated in human monocytic THP-1 cells.\nTHP-1 cells (ATCC, Manassas, Va.) were maintained in RPMI1640 in the presence of 10% serum according to manufacturer's instructions. The cells were pre-incubated with (+)-KDT501 at varying concentrations (50, 25, 12.5 and 3.125 μM) for one hour, then stimulated with TNF-α(10 ng/ml; Sigma, St. Louis, Mo.) or E. coli LPS (1 μg/ml; Sigma, St. Louis, Mo.) overnight (16-20 hours). MMP-9 levels in the medium were measured using an ELISA kit (GE Healthcare, Piscataway, N.J.), and cytokines were assayed using a Milliplex MAP human cytokine/chemokine kit (Millipore, Billerica, Mass.). Analytes were quantified using a Luminex 100™ IS. Data were analyzed using a five-parameter logistic method."}, "[5]": {"target": "Human DAPK1 (Homo sapiens, UniProt P53355)", "sequence (P53355 whole entry)": "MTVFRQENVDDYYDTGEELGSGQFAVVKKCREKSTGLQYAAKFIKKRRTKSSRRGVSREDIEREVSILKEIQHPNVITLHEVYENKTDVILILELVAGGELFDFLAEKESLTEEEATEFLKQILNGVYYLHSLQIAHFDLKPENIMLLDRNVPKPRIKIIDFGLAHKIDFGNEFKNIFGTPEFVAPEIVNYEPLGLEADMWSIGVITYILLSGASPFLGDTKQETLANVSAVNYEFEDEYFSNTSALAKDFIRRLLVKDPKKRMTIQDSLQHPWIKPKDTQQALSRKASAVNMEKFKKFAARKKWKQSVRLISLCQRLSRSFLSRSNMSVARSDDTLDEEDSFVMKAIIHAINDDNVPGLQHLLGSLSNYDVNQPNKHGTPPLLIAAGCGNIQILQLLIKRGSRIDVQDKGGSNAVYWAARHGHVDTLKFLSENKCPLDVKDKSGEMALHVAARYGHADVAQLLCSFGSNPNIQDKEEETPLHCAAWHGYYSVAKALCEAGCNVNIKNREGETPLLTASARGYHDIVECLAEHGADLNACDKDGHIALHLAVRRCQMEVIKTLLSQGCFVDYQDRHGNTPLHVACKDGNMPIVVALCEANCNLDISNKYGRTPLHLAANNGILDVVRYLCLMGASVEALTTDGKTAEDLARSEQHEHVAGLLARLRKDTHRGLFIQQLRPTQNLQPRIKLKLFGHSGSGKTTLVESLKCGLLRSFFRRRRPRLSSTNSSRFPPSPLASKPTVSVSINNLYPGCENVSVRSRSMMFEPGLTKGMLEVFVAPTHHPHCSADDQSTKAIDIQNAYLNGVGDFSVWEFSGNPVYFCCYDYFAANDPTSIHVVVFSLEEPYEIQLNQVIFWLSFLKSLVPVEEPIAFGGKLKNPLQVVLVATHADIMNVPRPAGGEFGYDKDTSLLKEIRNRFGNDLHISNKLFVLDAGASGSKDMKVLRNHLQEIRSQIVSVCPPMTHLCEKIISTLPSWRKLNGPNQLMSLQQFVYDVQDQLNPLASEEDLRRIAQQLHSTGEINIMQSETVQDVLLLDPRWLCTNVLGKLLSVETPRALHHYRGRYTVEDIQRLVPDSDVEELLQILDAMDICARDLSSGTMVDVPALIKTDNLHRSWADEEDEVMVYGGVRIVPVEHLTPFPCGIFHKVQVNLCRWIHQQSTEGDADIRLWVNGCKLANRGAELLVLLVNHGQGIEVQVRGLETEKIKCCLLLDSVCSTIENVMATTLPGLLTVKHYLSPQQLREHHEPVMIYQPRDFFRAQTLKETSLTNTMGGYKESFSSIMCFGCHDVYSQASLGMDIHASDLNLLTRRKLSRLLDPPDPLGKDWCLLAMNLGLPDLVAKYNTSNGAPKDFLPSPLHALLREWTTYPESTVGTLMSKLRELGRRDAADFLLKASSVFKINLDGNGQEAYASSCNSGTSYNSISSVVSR", "assay": "DAPK1 activity, cell free kinase assay", "type": "biochemical", "experimental": "The effect of (+)-KDT501 and (−)-KDT501 on death-associated protein kinase 1 (DAPK1) activity was evaluated.\nHuman DAPK1 was incubated with 8 mM MOPS, pH 7.0, 0.2 mM EDTA, 250 μM ZIP peptide substrate ([…]), 10 mM MgOAc, and [γ-^33P-ATP] (specific activity approximately 500 cpm/pmol, concentration as required). (+)-KDT501 or (−)-KDT501 at varying concentrations (100, 30, 10, 1, 0.3, 0.1, 0.03, 0.01 μM) were added to the reaction mixture. The reaction was initiated by addition of the MgATP mix. After incubation for 40 minutes at room temperature, the reaction was stopped by addition of 3% phosphoric acid solution. 10 μL of reaction mixture was spotted onto a P30 filtermat, washed three times for five minutes in 75 mM phosphoric acid and once in methanol prior, then dried and subjected to scintillation counting."}}}
{"molecule": "CC(C)CCC(=O)[C@@]1(O)C(O)=C(C(=O)CC(C)C)C(=O)[C@@H]1CCC(C)C.[K]", "note": "[(+)-KDT501, (+)-(4S,5R)-3,4-dihydroxy-2-(3-methylbutanoyl)-5-(3-methylbutyl)-4-(4-methylpentanoyl)cyclopent-2-en-1-one potassium salt]", "values": [{"measurement": "PPARδ activity", "setting": "[1]", "result": "little or no effect"}, {"measurement": "IC50", "setting": "[2]", "result": 14, "unit": "µM"}, {"measurement": "Ki", "setting": "[2]", "result": 7.1, "unit": "µM"}, {"measurement": "nH", "setting": "[2]", "result": 1.4}, {"measurement": "expression of MMP-13", "setting": "[3]", "result": "inhibited"}, {"measurement": "expression of PGE2", "setting": "[3]", "result": "inhibited"}, {"measurement": "expression of IL-1β", "setting": "[4]", "result": "inhibited"}, {"measurement": "expression of MCP-1", "setting": "[4]", "result": "inhibited"}, {"measurement": "expression of MIP-1α", "setting": "[4]", "result": "inhibited"}, {"measurement": "expression of MMP-9", "setting": "[4]", "result": "inhibited"}, {"measurement": "expression of RANTES", "setting": "[4]", "result": "inhibited"}, {"measurement": "fold difference in DAPK1 IC50 between the two compounds", "setting": "[5]; (+)-KDT501 versus (−)-KDT501", "result": "~15", "unit": "fold"}, {"measurement": "IC50", "setting": "[5]; cell free assay", "result": 2.65, "unit": "µM"}]}
